Assay results published in PubChem BioAssay (NCI).
“And” between values parts separate entries of the source, which are not always exact repeats. Identical values can stand only once.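 Method: 48-hour compound exposure of cells in 96-well plates, five concentrations, linear interpolation of endpoints. The concentration for 50% growth inhibition is given as GI50. TGI marks complete inhibition of growth.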

How the values were obtained:
Experiment in all cases: NCI-60 cell line screen, 48 h
HOP-62 NSCLC = system: HOP-62 NSCLC
SNB-75 CNS = system: SNB-75 CNS
HOP-92 NSCLC = system: HOP-92 NSCLC
M14 melanoma = system: M14 melanoma
HCC-2998 colon = system: HCC-2998 colon
KM12 colon = system: KM12 colon
MCF7 breast = system: MCF7 breast
HCT-116 colon = system: HCT-116 colon
CCRF-CEM leukemia = system: CCRF-CEM leukemia
SW-620 colon = system: SW-620 colon

SMILES	GI50 (HOP-62 NSCLC)	TGI (HOP-62 NSCLC)	GI50 (SNB-75 CNS)	TGI (SNB-75 CNS)	TGI (HOP-92 NSCLC)	GI50 (M14 melanoma)	TGI (M14 melanoma)	GI50 (HCC-2998 colon)	TGI (HCC-2998 colon)	GI50 (KM12 colon)	TGI (KM12 colon)	GI50 (MCF7 breast)	TGI (MCF7 breast)	GI50 (HCT-116 colon)	TGI (HCT-116 colon)	GI50 (CCRF-CEM leukemia)	TGI (CCRF-CEM leukemia) [µM]	GI50 (SW-620 colon)	TGI (SW-620 colon)	GI50 (HOP-92 NSCLC)
O=c1oc2ccc(Cl)cc2c(=O)n1-c1ccc(F)cc1F	1490 nM	4.84 µM	1320 nM	4.2 µM	0.176 µM	558 nM	5.03 µM	2890 nM	8.72 µM	2720 nM	10.2 µM	2420 nM	> 100 µM	2530 nM	10.4 µM	3320 nM	18.1	3120 nM	16.9 µM	
COc1ccccc1NC(=O)CC(=O)n1nc(C)c(N=Nc2ccccc2Cl)c1C		> 100 µM		57.2 µM	> 100 µM		> 100 µM		> 100 µM		> 100 µM		> 100 µM		> 100 µM		> 100		> 100 µM	
O=C(Nc1cccc(C(F)(F)F)c1)c1ccc(NC2=C(Cl)C(=O)N(Cc3ccccc3)C2=O)cc1	13100 nM	25.8 µM	23100 nM	51.4 µM	14.2 µM	9260 nM	21.7 µM	1290 nM	2.85 µM	10500 nM	24.8 µM	2020 nM	4.54 µM	2810 nM	9.22 µM	3060 nM	> 100	5110 nM	> 100 µM	3930 nM
COc1ccc(CNCCCN2C(=O)c3ccc4c5c(ccc(c35)C2=O)C(=O)N(CCCNCc2ccc(OC)c(OC)c2OC)C4=O)c(OC)c1OC	171 nM	0.729 µM	139 nM	0.442 µM	0.328 µM	85.5 nM	0.162 µM	95.7 nM	0.187 µM	79.2 nM	0.168 µM	81.1 nM	0.219 µM	77.3 nM	0.169 µM	137 nM	2.04	93.2 nM	0.225 µM	108 nM
O=[N+]([O-])c1ccc(N=Nc2c(Cl)cc(O)cc2Cl)cc1	2170 nM	5.87 µM	> 100000 nM	> 100 µM	2.01 µM	1950 nM	4.86 µM	3150 nM	10.8 µM	1410 nM	3.36 µM	1170 nM	6.43 µM	722 nM	3.08 µM	571 nM	7.25	1600 nM	10.3 µM	285 nM
CCN1C(=O)N(CC)C2C1NN=c1s/c(=C\c3ccc(C(F)(F)F)cc3)c(=O)n12 (configuration not stated)	508 nM	29.8 µM	180 nM	2.74 µM	35.9 µM	311 nM	> 36.1 µM	354 nM	11.6 µM	309 nM	> 34.9 µM	338 nM	> 40 µM	343 nM	> 32.8 µM	328 nM	17	406 nM	> 42.2 µM	2200 nM
Cc1ccc(-c2nc(/C=N/Nc3cc(C)nc4ccc(Br)cc34)c(C)o2)cc1	1870 nM	3.55 µM	1740 nM	3.39 µM	2.98 µM	1890 nM	3.63 µM	1740 nM	3.28 µM	1890 nM	3.6 µM	1920 nM	3.99 µM	1850 nM	3.46 µM	2170 nM	5.51	1920 nM	3.68 µM	1500 nM
COc1ccc(C2CC(c3ccc(OC)cc3O)=NN2c2ccc(S(N)(=O)=O)cc2)cc1 (configuration not stated)	33100 nM	> 100 µM	20800 nM	> 100 µM	32.8 µM	4540 nM	25.9 µM	16500 nM	> 100 µM	5140 nM	> 100 µM	4110 nM	> 100 µM	4470 nM	69.3 µM	16100 nM	> 100	16000 nM	> 100 µM	3270 nM
O=C1OC(c2ccc(Cl)cc2)=N/C1=C\c1ccccc1		> 100 µM		> 100 µM	> 100 µM		> 100 µM		> 100 µM		> 100 µM		> 100 µM		> 100 µM		> 100		> 100 µM	
CCc1[nH]nc(C(N)=O)c1N=NN(C)C		> 100 µM		> 100 µM	> 100 µM		> 100 µM		> 100 µM		> 100 µM		> 100 µM		> 100 µM		> 100		> 100 µM	
O=C1/C(=C/c2ccc(F)cc2)CN(C(=O)C(Cl)Cl)C/C1=C\c1ccc(F)cc1	407 nM	1.51 µM	1450 nM	2.93 µM	3.13 µM	249 nM	0.758 µM	178 nM	0.351 µM	107 nM	0.336 µM	112 nM	1.09 µM	67.3 nM	0.215 µM	136 nM	> 24.2	36.5 nM	0.119 µM	1310 nM
CCCS(=O)(=O)Nc1cccc(Nc2ncnc3cc(NC(=O)CCl)ccc23)c1Cl	2360 nM	7.12 µM	2460 nM	5.72 µM	8.54 µM	1110 nM	5.16 µM	5090 nM	10.6 µM	3060 nM	7.13 µM	1050 nM	5.92 µM	968 nM	4.03 µM	1030 nM	4.68	1230 nM	4.16 µM	4380 nM
COc1cc(NS(C)(=O)=O)ccc1Cc1c2ccccc2nc2ccccc12	59 nM	0.368 µM	188 nM	1.54 µM	1.14 µM	158 nM	1.43 µM	433 nM	2.35 µM	396 nM	2.01 µM	51.7 nM	5 µM	135 nM	1.93 µM	42 nM	0.751	121 nM	2.34 µM	129 nM
CC1=C2[C@@H](CC1)[C@]1(C)O[C@@](C(C)C)(C[C@H]1OC(=O)CO)[C@H]2OC(=O)CCCc1ccccc1	13400 nM	26.8 µM	2080 nM	18.5 µM	18 µM	7780 nM	21.8 µM	12000 nM	24.6 µM	5970 nM	20.1 µM	13200 nM	29.7 µM	3540 nM	13.9 µM	4650 nM	34.7	11000 nM	25.4 µM	3860 nM
CC1OC(CC(=O)O)Cc2c1c(O)c1c(O)cc(-c3cc(=O)c4c(=O)c5c(c(=O)c=4c3=O)CC(CC(=O)O)OC5C)c(O)c1c2O (configuration not stated)	71000 nM	> 100 µM	19400 nM	> 100 µM and 57.1 µM	41.3 µM	24400 nM	32 µM and 75.9 µM	18900 nM	> 73.9 µM and 55.2 µM	32500 nM	> 100 µM	27700 nM		30400 nM	27.2 µM		> 48.2	22000 nM	22.5 µM	
CCOC(=O)Nc1ccc2c(c1)C(=O)N(CC)c1ccccc1O2	128 nM	> 100 µM	188 nM	> 100 µM	> 100 µM	61.7 nM	> 100 µM	309 nM	> 100 µM	66.1 nM	> 100 µM	139 nM	> 100 µM	82.9 nM	> 100 µM	88.9 nM	> 100	63.2 nM	> 100 µM	1500 nM
O=C(Nc1cn[nH]c1-c1nc2ccc(CN3CCOCC3)cc2[nH]1)NC1CC1	721 nM and 1930 nM	4.01 µM and > 10 µM	32.7 nM and 214 nM	0.367 µM and 1.62 µM	2.6 µM and 8.8 µM	1520 nM and 4840 nM	4.34 µM and > 10 µM	1760 nM and > 10000 nM	3.81 µM and > 10 µM	634 nM and 1720 nM	4.06 µM and > 10 µM	522 nM and 2070 nM	7.37 µM and > 10 µM	208 nM and 473 nM	10.8 µM and > 10 µM	1420 nM	8.69	573 nM and 1320 nM	11.5 µM and > 10 µM	365 nM and 1060 nM
CC(C)CCCCCCCCCCCCC(=O)NCC(=O)NC1C(C)OC(Nc2ncnc3nc[nH]c23)C(O)C1O (configuration not stated)		0.00859 µM	52.2 nM	0.00316 µM	0.00219 µM and 0.00491 µM	2.52 nM		1.21 nM		0.442 nM	0.208 µM		0.264 µM				0.223	2.18 nM	0.146 µM and 0.0233 µM	0.324 nM
COc1ccc2nc3c(cc2c1)C(=O)CC(c1ccccc1)C3 (configuration not stated)	2750 nM	> 100 µM	181 nM	> 100 µM	> 100 µM			15900 nM	> 100 µM	469 nM	> 100 µM	3540 nM	> 100 µM	383 nM	> 100 µM	291 nM	> 100	727 nM	> 100 µM	
CCOC(=O)c1c(-c2ccc(OC)c(O)c2)c(C#N)c(=S)n(C2OC(COC(C)=O)C(OC(C)=O)C(OC(C)=O)C2OC(C)=O)c1-c1ccccc1 (configuration not stated)	26500 nM and > 100000 nM	72.2 µM and > 100 µM			87.9 µM and > 100 µM	18900 nM and > 100000 nM	40.6 µM and > 100 µM	31800 nM and > 100000 nM	> 100 µM	27000 nM and > 100000 nM	83.1 µM and > 100 µM	28200 nM and > 100000 nM	> 100 µM	35700 nM and > 100000 nM	> 100 µM	47200 nM and > 100000 nM	> 100		> 100 µM	
